In patent US20230173090A1, “COMPOSITIONS AND METHODS FOR MODULATING DOPAMINE RECEPTOR ACTIVITY” (The Regents of the University of California, priority 2020, published 2023):

Experiments:
D1R = target: T1, D1R (Homo sapiens, UniProt P21728); assay: D1R-mediated GIRK channel activation assay in HEK293T cells (whole-cell electrophysiology); format: cell-based; details: % of photocurrent in the absence of LE300
T1 construct: expressed in transfected cells; host or cells: HEK293T (A1, A2); HEK293 (A26)
Experimental: All constructs were cloned into mammalian expression vectors. For the receptor mediated-GIRK activation assay, HEK293T cells were seeded onto 18 mm coverslips and transiently transfected overnight with Lipofectamine 2000 and the following constructs: a receptor, a variant of the membrane-anchor (M; 0.7 µg), GIRK1(F137S) (0.7 µg), and tdTomato (0.2 µg). […] D1R, D5R, or opto-D1R were cotransfected with Gαis13 (0.35 µg), D3R with GαoA (0.7 µg), and M1R or mGluR1 with Gαiq5. Transfected cells were used for electrophysiology, imaging, or flow cytometry experiments.
HEK293T cells were sparsely seeded and maintained in DMEM (Invitrogen) with 10% fetal bovine serum on poly-L-lysine-coated coverslips at 37° C. and 5% CO2. HEK293T cells were voltage clamped in whole-cell configuration 16-48 hours after transfection. […] GluK2 electrophysiology was performed in the presence of 0.3 mg/mL concanavalin A to prevent desensitization. […] Cells were voltage clamped to -60 or -80 mV using an Axopatch 200A (Molecular Devices) amplifier.
For all experiments, compounds were applied using a gravity-driven perfusion system and illumination was applied to the entire field of view using a Polychrome V monochromator (TILL Photonics) through a 20x objective (maximum 0.05 mW/mm^2 at 370 nm and 0.5 mW/mm^2 at 460 nm or 473 nm) or a DG4 (Sutter) through a 20x objective (maximum 0.06 mW/mm^2 at 370 nm and 0.6 mW/mm^2 at 445 nm). pClamp software was used for both data acquisition and control of illumination.
The selection criteria for electrophysiological experiments are that a cell (i) expresses the fluorescent protein transfection marker, and (ii) responds to agonist, indicating the presence of either receptor and GIRK or an LGIC. Cells were not excluded unless the recording was of poor quality (e.g., unstable baseline).
Data were analyzed using GraphPad Prism (GraphPad), Clampfit (Axon instruments), Origin (OriginLab), MATLAB, or ImageJ software. For dose-response curves, data were normalized to vehicle (0%) and DA (100%) and nonlinear regression analysis was performed using the sigmoidal dose-response function in GraphPad Prism. Statistical analyses were performed using GraphPad Prism. All values reported are mean ± S.E.M.
FIGS. 9A-9H. Functional properties of untethered P-D1ago. (A) Schematic representation of a D1R-mediated G protein-coupled inwardly rectifying potassium (GIRK) channel assay in HEK293T cells. Agonist-induced receptor activation results in the recruitment of a heterotrimeric G protein containing the chimeric Gα subunit (Gαis) followed by the release of Gβγ, which activates GIRK channels and enhances inward-current. […] (E) Schematic representation of a highly sensitive D1R-mediated cAMP accumulation assay in HEK293T cells. Agonist-induced D1R activation results in Gs/olfrecruitment followed by the binding of its Gα subunit to adenylate cyclase (AC), which enhances the conversion of ATP to cAMP. cAMP binds the bioluminescence resonance energy transfer 1 (BRET′)-based cAMP sensor CAMYEL^87, resulting in a conformational change in its Epac domain that increases the distance and decreases BRET^1 between the donor Renilla luciferase (Rluc) and the acceptor YFP. […] Optimization and characterization of the D1R MP

D1R and D5R = assay: Open field test, bilateral dStr-infusion of SKF82958 in D1-Cre mice; format: in vivo
Experimental: FIGS. 21A-21K. […] (A) An infusion of SKF82958 directly to the dorsal striatum (dStr) activates D1R and D5R in various cell types of this brain area and could diffuse into other brain areas. (B) Time course of the effect of a bilateral dStr-infusion of SKF82958 (400 nL per hemisphere) on the locomotion of D1-Cre mice in an open field. (C) Average velocity in the last 10 minutes of the open field test. one-way ANOVA, F = 14.3, Bonferroni, ^∗∗p < 0.01, ^∗∗∗p < 0.001. n = 5 mice per condition. (D) Time to maximum locomotion with SKF82958 or MP-D1ago. unpaired two-sided t-test, ^∗∗∗∗p < 0.0001. n = 5 for SKF82958, n = 7 mice for MP-D1ago. (E) Example movement dynamics of a mouse treated with vehicle or 100 µg SKF82958. Shown for SKF82958-treated mice is the (F) average percent of the time in motion, (G) average initiations per second, (H) average movement bout duration, and (I) the average maximum movement bout velocity. […] Bonferroni, ^∗p < 0.05, ^∗∗p < 0.01. n = 5 mice. (J) Representative coronal brain slice from a mouse infused with SKF82958. grey bar = 1 mm. blue = DAPI staining. (K) Summary of cannula locations for individual mice.

T1 sequence (P21728 whole entry): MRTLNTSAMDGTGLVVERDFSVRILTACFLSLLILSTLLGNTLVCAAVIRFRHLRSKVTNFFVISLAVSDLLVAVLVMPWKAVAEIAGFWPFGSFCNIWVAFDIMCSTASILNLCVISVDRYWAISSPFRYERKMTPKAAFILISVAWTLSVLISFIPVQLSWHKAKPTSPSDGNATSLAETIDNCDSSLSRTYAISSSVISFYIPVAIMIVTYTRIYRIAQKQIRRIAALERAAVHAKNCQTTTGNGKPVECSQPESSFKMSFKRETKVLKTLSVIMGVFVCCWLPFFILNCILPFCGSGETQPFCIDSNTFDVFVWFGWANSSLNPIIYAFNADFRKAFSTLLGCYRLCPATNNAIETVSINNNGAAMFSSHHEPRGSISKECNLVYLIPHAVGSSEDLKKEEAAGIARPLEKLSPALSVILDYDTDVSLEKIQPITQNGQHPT

| Compound | photoactivation of D1R by P-D1ago tethered to the M in the presence of LE300 (D1R) [%] | duration of the movement bouts (D1R and D5R) | movement initiation (D1R and D5R) | percentage of the time in motion (D1R and D5R) | locomotion in an open field (D1R and D5R; 400 nL per hemisphere) |
| --- | --- | --- | --- | --- | --- |
| CN1CCc2ccccc2Cc2[nH]c3ccccc3c2CC1 [LE300, reference compound] | 3.3 ± 3.3 |  |  |  |  |
| C=CCN1CCc2c(cc(O)c(O)c2Cl)C(c2ccccc2)C1 (centres unmarked) [SKF82958] |  | increased | increased | increased the percentage of the time that the mice were in motion | enhanced locomotion |
